Measured values taken from patent US5582832A, “Compositions for topical application to skin” (priority 1995, dated 1996).

Legend:
Assay type in all cases: cell-based, human
[1] = system: keratinocytes; assay: Rate of DNA synthesis (3H-thymidine incorporation) in keratinocytes; settings: for keratinocyte DNA synthesis, % of the corresponding controls (1 uM Econazole) / keratinocyte DNA synthesis, % of the corresponding controls (10 uM Econazole) / keratinocyte DNA synthesis, % of the corresponding controls (no azole): Table 5; for keratinocyte DNA synthesis, % of the corresponding controls (1 uM Econazole): 1 uM ceramide + 1 uM Econazole; for keratinocyte DNA synthesis, % of the corresponding controls (10 uM Econazole): 1 uM ceramide + 10 uM Econazole; for keratinocyte DNA synthesis, % of the corresponding controls (no azole): 1 uM ceramide
Protocol: (§1) 1. Normal human keratinocytes isolated from neonatal foreskins by trypsin treatment were grown in DME medium/10% fetal calf serum in the presence of irradiated 3T3 mouse fibroblasts for establishing dividing keratinocyte colonies. Keratinocytes were grown under the above condition until their third passage.
2. For the experiments, third passage keratinocytes were plated into a serum-free keratinocyte growth medium (KSFM; obtained from Life Technologies, Grand Island, N.Y.) containing 0.09 mM calcium. 20,000 to 30,000 cells were plated into each well of 24 well cell culture plates and grown for 5 days, until the cells reach about 80% confluence.
3. Medium was changed to fresh medium and the various test materials were added to the medium from an ethanolic stock solution (10:00 AM). The final ethanol concentration in the cultures was kept below 0.2%. Control cultures received no tested material but were dosed with 0.2% ethanol. Each compound or combination was tested in three separate wells. By 4:00 PM, 1 uCi of ^3 H-thymidine (Amersham Corp., Sp activity 40 Ci/mmol) was added to the 1 ml medium in each well. The cells were incubated overnight and […] (10:00 AM next day) the amount of ^3 -thymidine associated with the cellular DNA of keratinocytes was assessed as described below.
4. The medium was aspirated, and the wells washed with 1 ml phosphate-buffered saline. The DNA and proteins of the cells in the plate were then precipitated by adding 1 ml of ice-cold 10% trichloroacetic acid (TCA). The plates were left on ice for 30 minutes to complete the precipitation process. TCA was then aspirated and each well was then washed four times with 5% TCA. The plates were then dried on a filter pad and the cells in the wells were dissolved in 0.5 ml of 0.1N sodium hydroxide. The sodium hydroxide was then neutralized using 0.1N hydrochloric acid and the solution (1 ml total volume) was then transferred to a scintillation vial. 50 μl samples from each vial were used for protein assay using BCA protein assay reagent obtained from Pierce Chemical Company. 8 ml of a scintillation fluid (Ecolume) was added to the rest of the solution in the vial, and the vials were counted in a scintillation counter to determine the amount of radioactivity in each vial. The DNA synthesis rate was then calculated as cpm ^3 H thymidine incorporated into total cellular DNA/microgram of cell protein for each individual well. Mean and standard deviation for each group was also calculated.
Rationale for using 1,25D is that in in vivo situation, these azoles will inhibit the endogenous degradation of the 1,25D which is obtained from the circulation. Azoles will act in keratinocytes to increase the endogenous levels of 1,25D within cells. Keratinocytes (70% confluent) were incubated with 10 uM of the different azoles in the presence of 100 nM 1,25D. One of the groups was treated with 5 uM of ceramide of Formula A in the medium. After four hours, all the wells were treated with 1 uCi ^3 H-thymidine and the rate of DNA synthesis was estimated as described in the methods.
Keratinocytes were incubated with 1 or 10 uM of Econazole in the presence of 1 uM of the different ceramide analogues and 100 nM 1,25D in the medium. Thymidine incorporation was measured with an overnight incubation as described in Example 2.

[2] = system: 25D degradation (vitamin D metabolism in keratinocytes); assay: Vitamin D metabolism in keratinocytes: 25D degradation; settings: for % degradation (25D): Table 1
Protocol: as §1
(§2) 80% confluent keratinocytes were incubated with 0.05 uCi of ^3 H-25D or ^3 H-1,25D for two hours or 20 hours in the presence of 1-100 uM of the different compounds. Reaction was stopped by addition of methanol and the cells and medium were extracted using chloroform:methanol. The chloroform layer was separated, dried and spotted on TLC plates. […] The amount of radioactivity in each lane was quantitated using the BioScan radioactive plate reader. The amount of radioactivity remaining in the peak area of 25D and 1,25D were calculated as % of control. The % remaining was subtracted from 100 to get the % degradation of the metabolites.
(§3) The data are expressed as mean of % degradation of 25D or 1,25D. The range is also given in parenthesis.

[3] = system: 1,25D degradation (vitamin D metabolism in keratinocytes); assay: Vitamin D metabolism in keratinocytes: 1,25D degradation; settings: for % degradation (1,25D): Table 1
Protocol: as §1, §2, §3

[4] = 100 nM 1,25D, * = synergistic effect
[5] = Tables 5A-5I, 100 nM 1,25D, Econazole 10 uM, ceramide analogue 1 uM
[6] = Tables 5A-5I, 100 nM 1,25D, Econazole 10 uM, ceramide analogue 1 uM, mean + SD
[7] = Table 2, 1 uM, 20 hour incubation, mean of duplicate (range)

CCCCCCCCCCCCCCCCN(CC(O)CO)C(C)=O (stereo not drawn) [Formula F]
keratinocyte DNA synthesis, % of the corresponding controls (1 uM Econazole) ([1]; 100 nM 1,25D): 84.3 + 1.96%
keratinocyte DNA synthesis, % of the corresponding controls (10 uM Econazole) [1, 4]: 40.9 + 9.0%
keratinocyte DNA synthesis, % of the corresponding controls (no azole) [1, 4]: 90.3 ± 21.4%
DNA synthesis (% control) [1, 5]: 90.3 % control
DNA synthesis [1, 6]: 27051 + 7858 cpm 3H thymidine incorporated

CCCCCCCCCCCCCCCCN(CC(O)CO)C(=O)CCCCC (stereo not drawn) [Formula G]
keratinocyte DNA synthesis, % of the corresponding controls (1 uM Econazole) ([1]; 100 nM 1,25D): 84.8 + 12.7%
keratinocyte DNA synthesis, % of the corresponding controls (10 uM Econazole) [1, 4]: 28.2 + 15.2%
keratinocyte DNA synthesis, % of the corresponding controls (no azole) [1, 4]: 102.8 ± 14.4%
DNA synthesis (% control) [1, 5]: 102.8 % control
DNA synthesis [1, 6]: 30794 + 5311 cpm 3H thymidine incorporated

CCCCCCCCCCCCN(CC(O)CO)C(=O)C(O)CCCCCC (stereo not drawn) [Formula K]
keratinocyte DNA synthesis, % of the corresponding controls (1 uM Econazole) ([1]; 100 nM 1,25D): 82.9 + 16.9%
keratinocyte DNA synthesis, % of the corresponding controls (10 uM Econazole) [1, 4]: 38.7 + 14.8%
keratinocyte DNA synthesis, % of the corresponding controls (no azole) [1, 4]: 100.2 ± 9.6%
DNA synthesis (% control) [1, 5]: 80 % control
DNA synthesis [1, 6]: 23958 + 5660 cpm 3H thymidine incorporated

N[C@@H](Cc1c[nH]c2ccccc12)C(=O)O [L-Tryptophan]
% degradation (25D) ([2]; 100 uM compound): 83%
% degradation (1,25D) ([3]; 100 uM compound): 100%

Clc1ccc(COC(Cn2ccnc2)c2ccc(Cl)cc2Cl)c(Cl)c1 (stereo not drawn) [Miconazole]
DNA synthesis, % of control (100 nM 1,25D + 5 uM ceramide Formula A) ([1]; Table 4, 10 uM azole (or no azole) + 100 nM 1,25D + 5 uM ceramide Formula A, mean + SD, * = synergistic effect, 1440 min): 17.5 + 3.3 % of control
DNA synthesis, % of control (azole, only 100 nM 1,25D) ([1]; Table 4, 10 uM azole, 100 nM 1,25D, no ceramide, mean + SD, 1440 min): 42.8 + 1.8 % of control
DNA synthesis ([1]; Tables 4A-4F, 100 nM 1,25D, azole 10 uM, ceramide Formula A 5 uM, mean + SD): 62806 + 2649 cpm 3H thymidine incorporated
DNA synthesis (% control) ([1]; Tables 4A-4F, 100 nM 1,25D, azole 10 uM, 1440 min): 42.8 % control
blocking of 25D degradation (in words) ([2]; 1 uM, 20 hours (Table 2)): effective with 25D
% degradation (25D) ([2]; 10 uM compound): 54%
25D degradation (%) [2, 7]: 38.7 (35.4-42.0) %
blocking of 1,25D degradation (in words) ([3]; 1 uM, 20 hours (Table 2)): did not block 1,25D degradation
% degradation (1,25D) ([3]; 10 uM compound): 70%
1,25D degradation (%) [3, 7]: 75.8 (69.9-81.8) %

Cc1ncc(C[n+]2csc(CCO)c2C)c(N)n1 [Thiamine]
% degradation (25D) ([2]; 100 uM compound): 85%
% degradation (1,25D) ([3]; 100 uM compound): 77%

Nc1nc2ncc(CNc3ccc(C(=O)N[C@@H](CCC(=O)O)C(=O)O)cc3)nc2c(=O)[nH]1 [folic acid]
% degradation (25D) ([2]; 100 uM compound): 78%
% degradation (1,25D) ([3]; 100 uM compound): 95%

CC1=CC(=O)c2ccccc2C1=O [menadione (vitamin K1), menadione]
% degradation (25D) ([2]; 100 uM compound): 89%
% degradation (1,25D) ([3]; 100 uM compound): 93%
